Data published in patent US20240016775A1, “ANTI-CORONAVIRUS APPLICATION OF POLY ADP RIBOSE POLYMERASE INHIBITOR” (FUKANG (SHANGHAI) HEALTH TECHNOLOGY CO., LTD, priority 2020, published 2024).
pEC50: −log10 of the molar value. Values joined by “and” are separate entries in the source; they are usually repeats but may differ in a detail not shown here. Identical values can stand only once. Like-named read-outs stand apart in the source and are kept apart here.

What was measured:
[1] = cited from earlier work
[2] = system: SARS-CoV-2; experiment: microbe, parasite or virus in culture; format: cell-based; conditions: for Inhibiting rate, %: 3 μM
[3] = rats, Male, cited from earlier work
[4] = rats, oral 54 mg/kg, cited from earlier work
[5] = some healthy subjects, 3 hours after taking the drug; cited from earlier work
[6] = Safety study in cynomolgus monkeys (body weight); format: in vivo; conditions: 5/20/80 mg/kg, 28 days, then 28 days off
Procedure: Healthy male and female monkeys, aged 3-4 years, were purchased from Landao Biotechnology, Guangdong, China. Animals were fed in accordance with the Guide for Care and Use of Laboratory Animals. The animals were randomized (5 animals/gender/group), and were fed with CVL218 via nasogastric at dose levels of 0 (control), 5, 20 and 80 mg/kg. Monkeys were observed twice daily for any changes in viability/mortality and behavior, response to treatment or health status.

[7] = Body weight of rats, 28 days oral administration and 28 days without; format: in vivo, Sprague-Dawley rats; conditions: oral 20/60/160 mg/kg, then 28 days off
Procedure: (§1) Sprague-Dawley rats were purchased from Animal Experiment Center of Shanghai, China. The experimental animals were housed in groups in wire cages, with no more than 6 animals per cage. The experimental conditions were good (temperature 25±2° C.; relative humidity 50±20%) and light-dark cycle (12 hours/12 hours). 144 Sprague-Dawley rats were randomized into 4 groups (18 animals/gender/group). CVL218 was administered at doses of 20, 40, 60 and 160 mg/kg. For all groups, 20 rats (10 animals/gender/group) were randomly selected, euthanized on day 28, and sections of various tissues and organs were obtained and frozen. Ten (5/gender/group) animals were euthanized after a 28-day drug-free period, and sections of their tissues and organs were taken and frozen. Six animals (3/gender/group) were euthanized after blood samples were collected. For pharmacokinetics and safety evaluations, the blood concentrations, clinical symptoms, mortality and body weight of animals were examined.

[8] = Tissue distribution study of CVL218 in rats (LC-MS-MS); format: in vivo, Sprague-Dawley rats; conditions: for Tissue concentration, Brain / Tissue concentration, Heart / Tissue concentration, Kidney / Tissue concentration, Liver / Tissue concentration, Lung / Tissue concentration, Spleen / Tissue concentration, Stomach: oral 20 mg/kg
Procedure: Sprague-Dawley rats were randomized into 3 time-point groups (3 animals/gender/group). At 3, 6 and 8 hours after CVL218 administration, animals were sacrificed, and the brain, heart, lung, liver, spleen, stomach and kidney tissues were collected. The tissue samples were washed with ice-cold physiological saline and weighed after excess liquid was removed with paper towels. After tissue sample solutions were weighed, they were stored at −20±2° C. until the drug concentration was determined by LC-MS-MS.

[9] = system: IL-6 production in PBMCs; format: cell-based; conditions: 12 hours
[10] = system: SARS-CoV-2
[11] = system: SARS-CoV-2; experiment: Time-of-addition assay (duration of action) in Vero E6 cells; format: cell-based; conditions: CVL218 20 μM, remdesivir 10 μM, 14 h after infection
[12] = Pharmacokinetic study of CVL218 in rats; format: in vivo, Sprague-Dawley rats
Procedure: as §1

[13] = Cytotoxicity test on Vero-E6 cells (CCK-8); format: cell-based; conditions: African green monkey, 48 h, read-out: CC50 (50% cytotoxic concentration)
Procedure: 2.1 Experimental Groups: • 1) Mefuparib hydrochloride (CVL218) group • 2) DMSO control group • 3) Olaparib group • 4) Cell control group: containing only cells, without adding drugs • 5) Blank control group (only medium without cells)
Mefuparib hydrochloride was obtained from Pukang (Shanghai) Health Technology Co., Ltd., with a purity of >99.0%. It was dissolved in DMSO and then diluted in gradients according to Table 4 below (the maintenance solution was DMEM medium). Serial dilutions were performed for DMSO according to the same dilution gradients.
Vero-E6 cells were seeded into 96-well culture plates at 1×10^4 cells/well, and cultured in DMEM containing 10% fetal bovine serum for 16 hours to become 80% pellets, then the cell culture medium was aspirated and discarded from each well, the cells were washed once with sterile PBS, and different drugs (200 μl/well) diluted in the cell maintenance solution were added to each well according to the experimental groups, with 3 duplicate wells set up for each group, and then the wells were placed in a 37° C., 5% CO2 incubator for 48 h.
For the DMSO control group, DMSO diluted with the cell maintenance solution to the corresponding concentration was added, and for the cell control group, 200 μl of the cell maintenance solution was added. For the blank control group, only cell maintenance solution without cells was added.
2.3.2 Detection of toxicity of mefuparib hydrochloride and Olaparib on Vero-E6 The cell state was observed and recorded under an inverted microscope, and the toxicity of the drug to Vero-E6 cells was detected according to the operation instructions of the CCK-8 kit: 20 μl of CCK-8 solution was added to all experimental wells and control wells, and the cell culture plate was placed in a 37° C., 5% CO2 incubator for 1 hour, and then its absorbance value at the wavelength of 450 nm was measured using a multifunctional microplate reader.

## CCOC(=O)c1c(CSc2ccccc2)n(C)c2cc(Br)c(O)c(CN(C)C)c12 [Arbidol, arbidol]
[1]; nausea, diarrhea, dizziness, increased serum transaminases
  Adverse events, share of subjects: about 6.2%
[1]; single oral dose 200 mg
  Peak concentration: 614.1 ± 342.5 ng/mL
[1]; single oral dose 400 mg
  Peak concentration: 904.2 ± 355.6 ng/mL
[1]; single oral dose 600 mg
  Peak concentration: 975.1 ± 661.0 ng/mL
[2]; Vero-E6, MOI 0.05, 48 h
  Inhibiting rate, %: 21.73%
[2]; Severe acute respiratory syndrome coronavirus 2, Vero C1008, 48 h, read-out: Inhibiting rate, %, 3 μM, Vero-E6, MOI 0.05, 48 h
  inhibition at 3 µM: 21%
[2]; Severe acute respiratory syndrome coronavirus 2, Vero C1008, 48 h, read-out: Inhibiting rate, %, 30 μM, Vero-E6, MOI 0.05, 48 h
  inhibition at 30 µM: 98.9%
[3]; oral 18 mg/kg
  AUC0-t: 1956 ± 895 ngh/mL
  AUC0-∞: 2224 ± 1058 ngh/mL
  Cmax: 1002 ± 298 ng/mL
  Tmax: 0.28 h
  t1/2: 3.6 ± 1.2 h
[3]; oral 54 mg/kg
  AUC0-t: 6790 ± 2749 ngh/mL
  AUC0-∞: 7558 ± 2877 ngh/mL
  Cmax: 4711 ± 2361 ng/mL
  Tmax: 0.18 h
  t1/2: 3.3 ± 0.7 h
[4]; 5 min
  Tissue concentration, Brain: 101 ± 67
  Tissue concentration, Heart: 72 ± 47
  Tissue concentration, Kidney: 79 ± 54
  Tissue concentration, Liver: 104 ± 82
  Tissue concentration, Spleen: 48 ± 35
  Tissue concentration, Stomach: 8210 ± 5410
[4]; 15 min
  Tissue concentration, Brain: 50 ± 10
  Tissue concentration, Heart: 132 ± 69
  Tissue concentration, Kidney: 259 ± 190
  Tissue concentration, Liver: 963 ± 290
  Tissue concentration, Spleen: 519 ± 281
  Tissue concentration, Stomach: 23180 ± 10170
[4]; 360 min
  Tissue concentration, Brain: 31 ± 21
  Tissue concentration, Heart: 41 ± 28
  Tissue concentration, Kidney: 58 ± 21
  Tissue concentration, Liver: 262 ± 175
  Tissue concentration, Spleen: 143 ± 51
  Tissue concentration, Stomach: 52750 ± 3059
[5]
  Heart rate decrease: 2-24 beats/minute

## CNCc1ccc(-c2cc3cc(F)cc(C(N)=O)c3o2)cc1.Cl [CVL218, mefuparib hydrochloride]
[6]
  Body weight versus control group: no significant difference in body weight
[7]
  Body weight versus control group: no significant difference in body weight
[8]
  Tissue/serum drug concentration ratio, Brain: 9.728 ± 1.130
  Tissue/serum drug concentration ratio, Heart: 16.514 ± 1.348
  Tissue/serum drug concentration ratio, Kidney: 41.307 ± 5.391
  Tissue/serum drug concentration ratio, Liver: 46.780 ± 5.215
  Tissue/serum drug concentration ratio, Spleen: 54.897 ± 6.250
  Tissue/serum drug concentration ratio, Stomach: 22.133 ± 7.130
[8]; hydrochloride
  Tissue/serum drug concentration ratio, Lung: 188 and 188.364 ± 28.467
[8]; 180 min
  Tissue concentration, Brain: 3580 ± 416
  Tissue concentration, Heart: 6077 ± 496
  Tissue concentration, Kidney: 15201 ± 1984
  Tissue concentration, Liver: 17215 ± 1919
  Tissue concentration, Lung: 69318 ± 10476
  Tissue concentration, Spleen: 20202 ± 2300
  Tissue concentration, Stomach: 8145 ± 2624
[8]; 360 min
  Tissue concentration, Brain: 998 ± 220
  Tissue concentration, Heart: 1390 ± 292
  Tissue concentration, Kidney: 3903 ± 594
  Tissue concentration, Liver: 2187 ± 859
  Tissue concentration, Lung: 18858 ± 2365
  Tissue concentration, Spleen: 6358 ± 1058
  Tissue concentration, Stomach: 1871 ± 813
[8]; 480 min
  Tissue concentration, Brain: 317 ± 55
  Tissue concentration, Heart: 275 ± 80
  Tissue concentration, Kidney: 993 ± 327
  Tissue concentration, Liver: 213 ± 88
  Tissue concentration, Lung: 4183 ± 847
  Tissue concentration, Spleen: 1475 ± 324
  Tissue concentration, Stomach: 569 ± 293
[2]; Vero-E6, MOI 0.05, 48 h, hydrochloride
  Inhibiting rate, %: 35% and 35.16%
[2]; different batches, hydrochloride, read-out: EC50 against SARS-CoV-2
  pEC50: 5.12 and 5.29
[9]; 1 μM
  Reduction of CpG-induced IL-6 production: 50%
[9]; 3 μM
  Reduction of CpG-induced IL-6 production: 72.65%
[10]; 25 μM
  Cytopathic effect in infected cells: No apparent cytopathic effect
[10]; 5, 15, 25 μM, 14 h after infection, versus DMSO treated cells
  Expression of the viral nucleoprotein (NP): significantly lower
[11]
  Antiviral activity, after the virus enters: significantly inhibit the replication after viral entry
  Antiviral activity, when the virus enters: partially antagonize viral entry
[11]; versus DMSO
  Antiviral activity, whole process treatment: stronger antiviral activity
[12]; oral 20 mg/kg, Female
  AUC0-t: 2196 ± 228 ngh/mL
  AUC0-∞: 2222 ± 241 ngh/mL
  Cmax: 502 ± 80 ng/mL
  MRT0-∞: 3.16 h
  Tmax: 3.0 h
  t1/2: 1.1 ± 0.16 h
[12]; oral 20 mg/kg, Male
  AUC0-t: 1070 ± 176 ngh/mL
  AUC0-∞: 1111 ± 192 ngh/mL
  Cmax: 234 ± 35 ng/mL
  MRT0-∞: 3.91 h
  Tmax: 4.0 h
  t1/2: 1.19 ± 0.09 h
[12]; oral 20 mg/kg, Total
  AUC0-t: 1633 ± 643 ngh/mL
  AUC0-∞: 1666 ± 639 ngh/mL
  Cmax: 368 ± 157 ng/mL
  MRT0-∞: 3.54 h
  Tmax: 3.5 h
  t1/2: 1.15 ± 0.13 h
[12]; oral 40 mg/kg, Female
  AUC0-t: 5220 ± 1113 ngh/mL
  AUC0-∞: 5242 ± 1115 ngh/mL
  Cmax: 940 ± 117 ng/mL
  MRT0-∞: 4.05 h
  Tmax: 2.0 h
  t1/2: 1.29 ± 0.21 h
[12]; oral 40 mg/kg, Male
  AUC0-t: 2802 ± 967 ngh/mL
  AUC0-∞: 2830 ± 983 ngh/mL
  Cmax: 510 ± 259 ng/mL
  MRT0-∞: 4.51 h
  Tmax: 3.0 h
  t1/2: 1.3 ± 0.33 h
[12]; oral 40 mg/kg, Total
  AUC0-t: 4011 ± 1620 ngh/mL
  AUC0-∞: 4036 ± 1620 ngh/mL
  Cmax: 725 ± 296 ng/mL
  MRT0-∞: 4.28 h
  Tmax: 2.5 h
  t1/2: 1.3 ± 0.24 h

## O=C(c1cc(Cc2n[nH]c(=O)c3ccccc23)ccc1F)N1CCN(C(=O)C2CC2)CC1 [Olaparib, olaparib, reference compound]
[2]; Severe acute respiratory syndrome coronavirus 2, Vero C1008, 48 h, 3.2 μM, Vero-E6, MOI 0.05, 48 h, different batches, read-out: Inhibiting rate, %
  inhibition at 3.2 µM: ~12%
[13]
  CC50 at 48 h: 100 to 300 µM
